Active and inactive are the calls of the source.
Tests used:
[1] = NIH-3T3 fibroblast cytotoxicity, dose response, cytotoxicity control, cell-based, fluorescence, Alamar Blue, secondary assay (AID 2327); format: functional;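 further: NIH-3T3 mouse fibroblasts cultured with fluconazole at 8 µg/mL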
[2] = fluconazole-exposed Candida albicans growth modulators – fluorescence, retest, confirmation (AID 2467); format: functional, cell-based
[3] = biological target: Beta-galactosidase (Escherichia coli, UniProt Q8VNN2); experiment: detection-enzyme interference by beta-gal modulators – biochemical, E. coli enzyme, set 3, artefact control for CCR6 antagonist project, dose response (AID 504712); format: functional
Sequence of Beta-galactosidase (Q8VNN2 whole entry): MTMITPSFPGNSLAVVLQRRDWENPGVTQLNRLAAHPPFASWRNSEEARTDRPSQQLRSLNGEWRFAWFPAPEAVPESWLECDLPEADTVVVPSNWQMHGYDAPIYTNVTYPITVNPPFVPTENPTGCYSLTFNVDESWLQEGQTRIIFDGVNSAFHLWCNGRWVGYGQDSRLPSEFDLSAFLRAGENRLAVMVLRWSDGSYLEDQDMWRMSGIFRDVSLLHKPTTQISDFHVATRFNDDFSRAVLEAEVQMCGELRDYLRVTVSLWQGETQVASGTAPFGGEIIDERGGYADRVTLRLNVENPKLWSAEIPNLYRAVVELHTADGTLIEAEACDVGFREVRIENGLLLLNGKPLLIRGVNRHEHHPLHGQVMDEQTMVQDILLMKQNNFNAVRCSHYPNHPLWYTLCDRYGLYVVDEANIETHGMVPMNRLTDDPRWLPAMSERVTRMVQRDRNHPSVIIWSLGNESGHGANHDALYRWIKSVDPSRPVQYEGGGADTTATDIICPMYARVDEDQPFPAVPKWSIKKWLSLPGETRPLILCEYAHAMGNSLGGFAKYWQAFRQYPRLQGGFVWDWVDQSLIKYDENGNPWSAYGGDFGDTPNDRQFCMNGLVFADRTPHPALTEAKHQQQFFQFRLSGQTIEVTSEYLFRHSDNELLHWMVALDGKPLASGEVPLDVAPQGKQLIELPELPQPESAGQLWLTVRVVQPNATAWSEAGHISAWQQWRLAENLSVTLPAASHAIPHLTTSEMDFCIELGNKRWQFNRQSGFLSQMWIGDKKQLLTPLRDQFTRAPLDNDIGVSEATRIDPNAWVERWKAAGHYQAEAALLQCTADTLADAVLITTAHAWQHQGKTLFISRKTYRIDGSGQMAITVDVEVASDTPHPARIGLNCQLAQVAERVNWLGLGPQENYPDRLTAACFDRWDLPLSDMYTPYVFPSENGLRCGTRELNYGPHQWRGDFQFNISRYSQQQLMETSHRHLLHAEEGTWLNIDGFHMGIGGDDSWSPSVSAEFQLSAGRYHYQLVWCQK

[4] = biological target: Large T antigen (Simian virus 40, UniProt P03070); format: functional, Betapolyomavirus macacae;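 further: Confirmatory-stage PubChem screen for compounds that inhibit SV40 T antigen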
Sequence of Large T antigen (P03070 whole entry): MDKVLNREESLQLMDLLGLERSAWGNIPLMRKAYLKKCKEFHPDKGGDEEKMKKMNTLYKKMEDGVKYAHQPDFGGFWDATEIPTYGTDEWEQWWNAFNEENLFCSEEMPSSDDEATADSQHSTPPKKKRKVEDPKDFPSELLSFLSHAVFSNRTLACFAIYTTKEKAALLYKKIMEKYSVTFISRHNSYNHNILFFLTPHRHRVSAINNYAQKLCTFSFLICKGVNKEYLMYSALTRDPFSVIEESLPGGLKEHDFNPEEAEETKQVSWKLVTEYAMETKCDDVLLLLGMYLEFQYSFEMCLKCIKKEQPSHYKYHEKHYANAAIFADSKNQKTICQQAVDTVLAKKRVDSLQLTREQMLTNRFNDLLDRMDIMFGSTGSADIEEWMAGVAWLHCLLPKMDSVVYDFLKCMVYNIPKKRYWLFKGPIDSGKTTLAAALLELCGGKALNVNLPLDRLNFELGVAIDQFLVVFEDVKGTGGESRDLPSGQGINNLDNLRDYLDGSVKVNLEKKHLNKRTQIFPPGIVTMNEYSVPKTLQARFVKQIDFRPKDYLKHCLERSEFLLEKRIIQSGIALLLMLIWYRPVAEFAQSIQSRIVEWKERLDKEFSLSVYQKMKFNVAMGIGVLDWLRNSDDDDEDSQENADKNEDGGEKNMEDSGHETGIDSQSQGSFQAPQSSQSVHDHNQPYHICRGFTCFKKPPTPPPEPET

[5] = biological target: DNA dC->dU-editing enzyme APOBEC-3G (Homo sapiens, UniProt Q9HC16); experiment: Dose Response confirmation of small molecule APOBEC3G DNA Deaminase Inhibitors via a fluorescence-based single-stranded DNA deaminase assay. [Related pubchem assays (depositor defined):AID493012, AID493028]; format: functional
Sequence of DNA dC->dU-editing enzyme APOBEC-3G (Q9HC16 whole entry, the tested form may be a part): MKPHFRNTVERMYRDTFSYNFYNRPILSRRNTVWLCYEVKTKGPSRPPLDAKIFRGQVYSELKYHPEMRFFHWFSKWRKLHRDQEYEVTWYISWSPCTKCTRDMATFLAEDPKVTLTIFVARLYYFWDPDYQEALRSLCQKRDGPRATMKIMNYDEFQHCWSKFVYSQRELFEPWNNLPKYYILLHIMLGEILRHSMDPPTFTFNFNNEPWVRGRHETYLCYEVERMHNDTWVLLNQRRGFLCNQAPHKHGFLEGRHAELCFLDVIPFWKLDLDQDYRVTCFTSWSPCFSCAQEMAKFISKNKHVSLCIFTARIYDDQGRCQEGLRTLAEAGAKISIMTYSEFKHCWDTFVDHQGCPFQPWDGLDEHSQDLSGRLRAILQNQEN

[6] = biological target: T1, RNA-binding protein pos-1 (Caenorhabditis elegans, UniProt G5EF15); experiment: disruptors of C. elegans POS-1 RNA interaction – biochemical, fluorescence polarization, dose response (AID 1964);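 further: purified POS-1 fused to maltose binding protein made in E. coli; potency of compounds blocking POS-1 binding to fluorescent RNA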
T1 sequence (G5EF15 whole entry): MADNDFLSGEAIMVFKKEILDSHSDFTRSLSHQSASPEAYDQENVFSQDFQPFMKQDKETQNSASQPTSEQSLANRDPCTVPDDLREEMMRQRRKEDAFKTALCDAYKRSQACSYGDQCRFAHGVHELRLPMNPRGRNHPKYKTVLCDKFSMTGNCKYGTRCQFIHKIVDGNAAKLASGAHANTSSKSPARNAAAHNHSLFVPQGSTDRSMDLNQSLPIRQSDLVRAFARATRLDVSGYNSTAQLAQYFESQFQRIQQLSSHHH

[7] = biological target: T2, Zinc finger protein mex-5 (Caenorhabditis elegans, UniProt Q9XUB2); experiment: potency of MEX-5 RNA-binding blockers – biochemical, C. elegans, fluorescence polarization, dose response (AID 1960)
T2 sequence (Q9XUB2 whole entry): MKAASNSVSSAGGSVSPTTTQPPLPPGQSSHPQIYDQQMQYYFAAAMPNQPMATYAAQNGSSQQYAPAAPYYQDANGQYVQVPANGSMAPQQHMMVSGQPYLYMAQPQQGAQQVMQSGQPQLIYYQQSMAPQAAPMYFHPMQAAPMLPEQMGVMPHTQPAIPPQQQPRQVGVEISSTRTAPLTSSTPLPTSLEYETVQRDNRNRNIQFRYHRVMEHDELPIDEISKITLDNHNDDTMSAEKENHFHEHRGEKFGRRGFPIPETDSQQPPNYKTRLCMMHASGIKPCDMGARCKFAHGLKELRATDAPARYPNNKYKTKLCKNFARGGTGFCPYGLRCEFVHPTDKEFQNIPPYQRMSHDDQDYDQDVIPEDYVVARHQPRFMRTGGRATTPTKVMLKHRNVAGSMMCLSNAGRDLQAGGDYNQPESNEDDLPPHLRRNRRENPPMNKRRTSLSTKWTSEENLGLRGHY

[8] = biological target: Luciferin 4-monooxygenase (Photinus pyralis, UniProt P08659); experiment: inhibition of purified Photinus pyralis luciferase – biochemical, luminescence, dose response (AID 1891)
Sequence of Luciferin 4-monooxygenase (P08659 whole entry): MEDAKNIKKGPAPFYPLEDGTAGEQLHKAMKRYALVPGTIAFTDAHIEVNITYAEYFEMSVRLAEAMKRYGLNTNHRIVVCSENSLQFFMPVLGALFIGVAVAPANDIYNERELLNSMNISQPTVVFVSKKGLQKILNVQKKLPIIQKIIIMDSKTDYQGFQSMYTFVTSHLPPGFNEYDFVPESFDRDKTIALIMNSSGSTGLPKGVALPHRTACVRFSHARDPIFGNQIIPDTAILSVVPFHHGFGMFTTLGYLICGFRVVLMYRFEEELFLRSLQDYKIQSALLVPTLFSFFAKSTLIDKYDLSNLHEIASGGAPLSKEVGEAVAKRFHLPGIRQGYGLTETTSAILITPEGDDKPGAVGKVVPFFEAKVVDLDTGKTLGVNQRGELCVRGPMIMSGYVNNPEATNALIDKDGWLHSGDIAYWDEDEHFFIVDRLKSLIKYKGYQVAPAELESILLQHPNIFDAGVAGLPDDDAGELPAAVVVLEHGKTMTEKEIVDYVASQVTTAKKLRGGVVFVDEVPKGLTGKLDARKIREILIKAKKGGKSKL

[9] = Luminescence Cell-Based Dose Confirmation HTS to Identify Inhibitors of Platelet Dense Granule Release. [Related pubchem assays: 1663 (Primary HTS), 1678 (Summary of Project)]; format: functional
[10] = system: HeLa; experiment: viability loss in HeLa cells – cell-based, 24 h, cherry-picked samples, cytotoxicity control, dose response (AID 504726); format: functional; conditions: Homo sapiens;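 further: potency for cytotoxicity as loss of luminescence signal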
[11] = biological target: T3, Lysine-specific demethylase 4C (Homo sapiens, UniProt Q9H3R0); experiment: inhibition of JMJD2C H3K9me3 demethylation – biochemical, DELFIA europium, cherry-picked samples, dose response (AID 488835); format: functional
T3 sequence (Q9H3R0 whole entry): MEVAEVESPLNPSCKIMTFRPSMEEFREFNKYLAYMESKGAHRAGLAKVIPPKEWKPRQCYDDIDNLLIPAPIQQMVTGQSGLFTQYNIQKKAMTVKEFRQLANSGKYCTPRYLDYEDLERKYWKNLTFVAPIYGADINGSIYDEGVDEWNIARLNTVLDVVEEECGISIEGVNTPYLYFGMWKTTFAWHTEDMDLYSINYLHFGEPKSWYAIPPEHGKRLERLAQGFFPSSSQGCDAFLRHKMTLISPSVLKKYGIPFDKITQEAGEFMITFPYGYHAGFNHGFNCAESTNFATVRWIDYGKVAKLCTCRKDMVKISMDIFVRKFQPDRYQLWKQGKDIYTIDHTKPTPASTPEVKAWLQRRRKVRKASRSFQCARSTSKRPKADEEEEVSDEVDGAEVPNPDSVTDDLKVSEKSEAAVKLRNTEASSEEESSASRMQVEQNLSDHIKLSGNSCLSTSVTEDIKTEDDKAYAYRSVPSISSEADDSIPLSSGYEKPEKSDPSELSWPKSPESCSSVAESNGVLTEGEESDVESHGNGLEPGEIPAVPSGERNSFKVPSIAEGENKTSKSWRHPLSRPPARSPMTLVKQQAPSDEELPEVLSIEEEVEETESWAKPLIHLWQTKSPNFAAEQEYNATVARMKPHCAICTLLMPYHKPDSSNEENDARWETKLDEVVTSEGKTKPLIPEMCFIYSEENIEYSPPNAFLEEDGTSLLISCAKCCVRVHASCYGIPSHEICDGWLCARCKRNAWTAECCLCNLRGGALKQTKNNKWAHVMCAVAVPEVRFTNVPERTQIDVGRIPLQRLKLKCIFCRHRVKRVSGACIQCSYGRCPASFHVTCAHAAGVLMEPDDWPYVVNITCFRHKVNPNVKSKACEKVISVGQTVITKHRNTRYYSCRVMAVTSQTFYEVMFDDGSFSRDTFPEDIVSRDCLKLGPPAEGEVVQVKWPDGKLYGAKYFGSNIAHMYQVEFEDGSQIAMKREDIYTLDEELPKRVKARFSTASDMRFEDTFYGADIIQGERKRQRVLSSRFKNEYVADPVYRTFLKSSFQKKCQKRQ

[12] = biological target: T4, Hexokinase HKDC1 (Homo sapiens, UniProt Q2TB90); experiment: inhibition of HKDC1 glucose phosphorylation – biochemical, W721R variant, dose response (AID 504729); format: functional
T4 sequence (Q2TB90 whole entry): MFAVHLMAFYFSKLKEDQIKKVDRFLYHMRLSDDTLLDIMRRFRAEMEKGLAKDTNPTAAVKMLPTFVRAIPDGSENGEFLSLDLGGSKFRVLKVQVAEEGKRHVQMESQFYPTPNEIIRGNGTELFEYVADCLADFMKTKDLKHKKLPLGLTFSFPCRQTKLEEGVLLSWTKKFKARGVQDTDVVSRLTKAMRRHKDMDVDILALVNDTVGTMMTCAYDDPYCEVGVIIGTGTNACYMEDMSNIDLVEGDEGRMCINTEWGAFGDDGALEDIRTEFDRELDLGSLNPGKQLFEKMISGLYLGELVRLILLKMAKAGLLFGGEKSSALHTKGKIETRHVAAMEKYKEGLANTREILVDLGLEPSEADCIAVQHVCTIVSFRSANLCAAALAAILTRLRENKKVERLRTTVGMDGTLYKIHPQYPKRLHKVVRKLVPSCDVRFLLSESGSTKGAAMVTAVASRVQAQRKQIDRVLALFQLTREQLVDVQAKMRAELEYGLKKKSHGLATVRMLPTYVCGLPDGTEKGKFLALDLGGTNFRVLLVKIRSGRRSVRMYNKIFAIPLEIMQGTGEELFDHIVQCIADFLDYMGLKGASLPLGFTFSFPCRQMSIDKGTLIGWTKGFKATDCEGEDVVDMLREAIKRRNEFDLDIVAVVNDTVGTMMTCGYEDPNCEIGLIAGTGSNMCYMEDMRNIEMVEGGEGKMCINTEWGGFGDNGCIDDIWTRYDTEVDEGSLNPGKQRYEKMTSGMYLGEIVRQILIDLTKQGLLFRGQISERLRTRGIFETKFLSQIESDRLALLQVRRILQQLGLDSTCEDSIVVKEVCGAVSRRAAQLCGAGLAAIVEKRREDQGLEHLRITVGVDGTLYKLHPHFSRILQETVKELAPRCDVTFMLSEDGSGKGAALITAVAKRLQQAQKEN

[13] = system: Streptococcus sp. 'group A'; experiment: Streptococcus pyogenes SK(-)GAS viability under kanamycin – luminescence, BacTiterGlo, confirmation, counter-screen for streptokinase expression inhibitor project, dose response (AID 1900); format: functional, organism-based
[14] = system: Streptococcus; experiment: GAS UMAA2166 growth inhibition – luminescence, BacTiterGlo, counter-screen for streptokinase expression inhibitor project, dose response (AID 1915); format: functional, organism-based;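 further: potency for reduction of bacterial viability or growth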
[15] = biological target: Heat shock protein HSP 90-alpha (Homo sapiens, UniProt P07900); format: functional, organism-based
[16] = biological target: Induced myeloid leukemia cell differentiation protein Mcl-1 (Homo sapiens, UniProt Q07820); format: functional
Sequence of Induced myeloid leukemia cell differentiation protein Mcl-1 (Q07820 whole entry): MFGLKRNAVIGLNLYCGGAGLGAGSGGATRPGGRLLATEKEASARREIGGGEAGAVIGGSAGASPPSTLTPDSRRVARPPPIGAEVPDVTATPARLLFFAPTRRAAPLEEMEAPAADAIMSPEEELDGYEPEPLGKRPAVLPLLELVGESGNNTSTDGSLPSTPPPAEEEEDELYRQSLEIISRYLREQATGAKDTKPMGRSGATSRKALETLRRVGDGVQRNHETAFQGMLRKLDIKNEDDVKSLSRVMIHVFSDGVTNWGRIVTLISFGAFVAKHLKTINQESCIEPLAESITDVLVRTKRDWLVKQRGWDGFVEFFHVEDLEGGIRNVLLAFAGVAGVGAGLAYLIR

[17] = system: Vero; experiment: viability of Vero cells under compound – cytotoxicity control for flavivirus capping enzyme inhibitors (AID 588742); format: functional; conditions: Chlorocebus sabaeus
[18] = biological target: Genome polyprotein (dengue virus type 2, UniProt P29990); experiment: flavivirus cap methylation enzyme inhibition – biochemical, confirmation dose response, primary screen (AID 588689); format: functional
Sequence of Genome polyprotein (P29990 2492-3391 limits assumed): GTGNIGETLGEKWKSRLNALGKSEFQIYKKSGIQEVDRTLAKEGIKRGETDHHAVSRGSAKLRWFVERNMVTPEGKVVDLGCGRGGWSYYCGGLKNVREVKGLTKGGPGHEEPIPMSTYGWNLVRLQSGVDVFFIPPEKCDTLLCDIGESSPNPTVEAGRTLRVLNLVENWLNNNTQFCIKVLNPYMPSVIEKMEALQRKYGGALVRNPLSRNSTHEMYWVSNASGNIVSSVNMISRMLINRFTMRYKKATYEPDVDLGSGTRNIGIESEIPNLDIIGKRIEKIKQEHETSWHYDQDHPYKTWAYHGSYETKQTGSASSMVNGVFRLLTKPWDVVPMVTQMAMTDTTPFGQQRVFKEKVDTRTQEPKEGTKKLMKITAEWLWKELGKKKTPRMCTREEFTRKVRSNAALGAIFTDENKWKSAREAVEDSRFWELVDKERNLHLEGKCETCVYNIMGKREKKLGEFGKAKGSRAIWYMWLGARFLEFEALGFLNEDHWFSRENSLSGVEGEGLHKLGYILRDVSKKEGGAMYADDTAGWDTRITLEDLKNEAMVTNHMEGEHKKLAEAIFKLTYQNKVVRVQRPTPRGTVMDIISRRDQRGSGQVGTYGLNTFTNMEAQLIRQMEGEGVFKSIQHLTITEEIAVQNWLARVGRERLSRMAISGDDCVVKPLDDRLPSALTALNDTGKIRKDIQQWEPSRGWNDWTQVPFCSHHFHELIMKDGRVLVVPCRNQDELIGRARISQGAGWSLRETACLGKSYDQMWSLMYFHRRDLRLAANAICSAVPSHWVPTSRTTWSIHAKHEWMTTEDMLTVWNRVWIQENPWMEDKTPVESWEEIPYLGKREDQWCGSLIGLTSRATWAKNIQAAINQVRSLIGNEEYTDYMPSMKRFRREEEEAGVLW

[19] = biological target: T5, SUMO-activating enzyme (Homo sapiens, UniProt Q9UBT2); experiment: blockers of UBC9-mediated SUMO conjugation – biochemical, AlphaScreen, SUMOylation inhibitor project, confirmation (AID 2018); format: functional
T5 sequence (Q9UBE0 whole entry): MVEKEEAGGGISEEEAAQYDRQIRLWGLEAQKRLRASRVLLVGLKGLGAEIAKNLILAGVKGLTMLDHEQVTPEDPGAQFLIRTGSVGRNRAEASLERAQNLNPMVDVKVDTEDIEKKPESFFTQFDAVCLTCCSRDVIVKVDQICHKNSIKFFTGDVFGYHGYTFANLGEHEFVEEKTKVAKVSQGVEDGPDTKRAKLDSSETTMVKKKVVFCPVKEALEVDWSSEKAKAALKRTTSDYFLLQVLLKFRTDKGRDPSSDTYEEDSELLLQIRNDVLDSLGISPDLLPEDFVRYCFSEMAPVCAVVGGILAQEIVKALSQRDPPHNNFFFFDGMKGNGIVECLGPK
T5 sequence (Q9UBT2 whole entry): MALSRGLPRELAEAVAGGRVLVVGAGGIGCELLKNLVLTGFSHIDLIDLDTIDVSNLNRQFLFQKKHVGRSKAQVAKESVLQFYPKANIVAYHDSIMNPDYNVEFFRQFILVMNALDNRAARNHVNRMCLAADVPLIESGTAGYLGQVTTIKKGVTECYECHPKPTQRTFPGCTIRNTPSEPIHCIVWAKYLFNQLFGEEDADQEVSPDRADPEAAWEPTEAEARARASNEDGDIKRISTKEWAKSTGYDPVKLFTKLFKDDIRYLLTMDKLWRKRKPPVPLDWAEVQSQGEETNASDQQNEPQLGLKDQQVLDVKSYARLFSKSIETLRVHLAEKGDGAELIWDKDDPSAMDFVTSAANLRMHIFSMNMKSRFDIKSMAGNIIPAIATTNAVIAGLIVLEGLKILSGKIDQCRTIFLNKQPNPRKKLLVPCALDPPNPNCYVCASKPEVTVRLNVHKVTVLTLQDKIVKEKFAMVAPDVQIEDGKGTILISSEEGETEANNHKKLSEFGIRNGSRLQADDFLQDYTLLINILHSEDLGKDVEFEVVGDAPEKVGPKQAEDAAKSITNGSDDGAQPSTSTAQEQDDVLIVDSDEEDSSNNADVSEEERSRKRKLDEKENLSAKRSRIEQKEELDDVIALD

[20] = biological target: T5, SUMO-activating enzyme; experiment: blockers of SAE1/SAE2–UBC9 SUMO transfer – biochemical, HTRF, uHTS, primary screen (AID 2006); format: protein-complex assay

With `O=C(NC(=S)Nc1ccccc1O)c1ccc(Cl)cc1Cl` the EC50 [1] was > 160 µM (inconclusive), the EC50 [2] was 0.636 µM (active) and the IC50 [3] was > 66.6 µM (inactive).

For `Sc1nnc(NCCCN2CCOCC2)s1`, the IC50 [4] was 22.6 µM (active) and the IC50 [5] was 22.4 µM (active).

For `Cc1cc(NS(=O)(=O)c2ccc(Nc3nc(-c4sc(N)nc4C)cs3)cc2)no1`, the EC50 [6] was 9.62 µM (active), the EC50 [7] was 7.76 µM (active) and the EC50 [8] was > 112 µM (not active). For the same molecule, the EC50 [9] was > 112 µM (not active), the AC50 [10] was 52.4 µM (active) and the AC50 [11] was 8.48 µM (active).

With `Cc1cccc(N2C(=O)NC(=O)/C(=C\c3cc(C)n(-c4sc5c(c4C#N)CCCC5)c3C)C2=O)c1C` the IC50 [12] was 17.1 µM (active).

In the case of `O=C(Nc1nc(-c2ccccc2)c(-c2ccccc2)o1)c1ccc(F)cc1`, the EC50 [13] was 0.894 µM (active), the EC50 [14] was 1.77 µM (active) and the IC50 [3] was > 66.6 µM (inactive). The AC50 [15] was 7.59 µM (active).

With `CC(C)c1ccc(S(=O)(=O)/N=C2/C=C(Sc3nc[nH]n3)C(=O)c3ccccc32)cc1` the IC50 [16] was 1.35 µM (active), the IC50 [12] was 2.88 µM (active) and the CC50 [17] was 22.2 µM (active). The IC50 [18] was 6.89 µM (active).

For `Cc1ccccc1C(=O)Nc1nnc(CC(=O)N/N=C/c2cn(Cc3ccccc3)c3ccccc23)s1`, the IC50 [19] was 16.8 µM (active) and the IC50 [20] was 24.7 µM (active).
